# Values of other authors as cited in patent US8541223B2, “Lactic acid bacteria having action of lowering blood uric acid level” (Meiji Co., Ltd., priority 2007, dated 2013).
# System: dietary hyperuricemia model animals
# Settings: oral administration of allopurinol; from Food Function Research News vol. 14
structure (smiles),measurement,value
Oc1ncnc2[nH]ncc12 [allopurinol],blood uric acid level in the model animals,significantly suppressed
